# Patent US20260335446A1, “TETRAZINE-BASED TARGETING AGENTS FOR IN VIVO DELIVERY OF A PAYLOAD” (Tambo, Inc., priority 2023, published 2026)
# Test: LCMS analysis of drug release by tetrazines (TCO-MMAE Compound B)
# Settings: tetrazine 20 μM, Compound B 10 μM, PBS
# Experimental: A solution of each tetrazine (20 μM final concentration) in PBS is mixed with TCO-MMAE Compound B (10 μM final concentration). The solution is mixed thoroughly and an aliquot removed at the appropriate time for analysis by LCMS.
row,Structure (SMILES),% Compound B consumed (1 h)
1,Cc1nnc(-c2ncccn2)nn1,100%
2,Cc1nnc(-c2cn(C)cn2)nn1,74%
3,Cc1nnc(-c2cocn2)nn1,42%
4,Cc1nnc(-c2ccc(C(F)(F)F)c(CN)c2)nn1,100%
5,Cc1nnc(-c2ccc(CN)c(C(F)(F)F)c2)nn1,100%
6,Cc1nnc(-c2ccccn2)nn1,100%
7,Cc1nnc(-n2cccn2)nn1,81%

# Test: LC-MS quantification of conversion of protodrug in presence of Compound 111 in rat plasma-EDTA
# Settings: FIG. 2, 37° C., Compound 111 100 μg/mL, protodrug 250 ng/mL
# Experimental: Liquid chromatography-mass spectrometry (LC-MS) was used to quantify the conversion of Compound B protodrug to MMAE and Compound F to exatecan in the presence of Compound 111. Compound 111 (100 μg/mL) was added to rat plasma-EDTA and incubated at 37° C. The protodrugs, Compound B and Compound F, were added to the plasma with the final concentration of 250 ng/mL. At each time point, triplicate aliquots were transferred to a plate with various pH extraction conditions and precipitated with acetonitrile for Compound B/MMAE or methanol for Compound F/exatecan. LC-MS/MS analyzed the extracted samples with the instrument methods previously established for each analyte. The conversion percentage was calculated based on the initial concentration of protodrugs and the formation of exatecan and MMAE in mole/mL.
Structure (SMILES),conversion to MMAE after reaction with Compound 111,conversion to exatecan after reaction with Compound 111
CC[C@H](C)[C@@H]([C@@H](CC(=O)N1CCC[C@H]1[C@H](OC)[C@@H](C)C(=O)N[C@H](C)[C@@H](O)c1ccccc1)OC)N(C)C(=O)[C@@H](NC(=O)[C@H](C(C)C)N(C)C(=O)O[C@H]1/C=C/CC[C@@](C)(C(=O)N[C@@H](CC(=O)O)C(=O)O)CC1)C(C)C [Compound B],rapidly converted,–
CC[C@@]1(O)C(=O)OCc2c1cc1n(c2=O)Cc2c-1nc1cc(F)c(C)c3c1c2[C@@H](NC(=O)O[C@H]1/C=C/CC[C@@](C)(C(=O)NCCOCCOCCOCCN(CCOCCOCCOCCC(=O)O)CCOCCOCCOCCC(=O)O)CC1)CC3 [Compound F],–,rapidly converted
